The source of these data is patent publication US20230292776A1, “GAS PHASE TREATMENT OF PRODUCE” (priority 2022, published 2023).

The subject of series [1] is Penicillium digitatum (Pd). The series can be described thus: Antifungal activity of vapor against Penicillium digitatum (Pd) in wounded, infected mandarins. It counts as in vivo. The conditions noted are these: for effect on Pd mold: Example 5, 125 μL, assessed after 6 days. How it is done:
(§1) Example 1. The antifungal activity of diallyl disulfide (DADS) vapor against Penicillium digitatum (Pd) was tested in mandarins. All samples were wounded by puncturing with a screw and infected by dispensing 1000 Pd spores suspended in 10 μL of water into each wound. The test groups consisted of mandarins that were: untreated; dipped in a solution of 1 g/L of imazalil; and exposed for 72 hours to the vapor of 3 mL of DADS in a Petri dish.
(§2) Example 2. The antifungal activity of allyl isothiocyanate (AITC) and DADS vapor was tested against Pd and Penicillium italicum (Pi) in mandarins. All samples were wounded by puncturing with a screw. Mandarins were infected by dispensing either 1000 Pd spores or 1000 Pi spores suspended in 10 μL into the wound. The test groups consisted of mandarins that were: uninfected and untreated; uninfected and treated by dipping in a solution of 1 g/L of imazalil; infected with Pd and untreated; infected with Pd and exposed to AITC; infected with Pd and exposed to DADS; infected with Pi and untreated; infected with Pi and exposed to AITC; and infected with Pi and exposed to DADS. Exposure to AITC or DADS consisted of exposing the mandarins for 72 hours to the vapor of 3 mL of the respective compound dispensed in a Petri dish.
(§3) Example 3. The antifungal activity of a reduced dose of AITC vapor against Pd in mandarins was tested. All samples were wounded by puncturing with a screw. Mandarins were infected by dispensing 1000 Pd spores suspended in 10 μL of water into each wound. The test groups consisted of mandarins that were: uninfected and untreated; infected with Pd and untreated; and exposed to the vapor of 500 μL of AITC in a Petri dish for 72 hours.
Example 4. The antifungal activity of a range of AITC vapor concentrations was tested against Pd in mandarins. All mandarins were wounded by puncturing with a screw and infected by dispensing 1000 Pd spores suspended in 10 μL of water in each wound. The fruit was then placed in an airtight container, a range of AITC volumes were disposed onto a Whatman filter paper disc, the disc was suspended in front of a battery-powered fan, and the container closed for 18 hours. The mandarins were then left at ambient temperature and high humidity for 6 days. The test groups were mandarins that were infected and untreated, and infected and treated with 62.5 μL 125 μL 250 μL and 500 μL on the filter paper disc. […] FIG. 6 is a bar graph showing incidence (% infected) for the test groups.
Example 5. The antifungal activity of a range of AITC vapor exposure times was tested to determine the effects against Pd in mandarins. All samples were wounded by puncturing with a screw. Mandarins were infected by dispensing 1000 Pd spores suspended in 10 μL of water in the wound. The fruit was then placed in an airtight container, 125 μL of AITC was dispensed onto a Whatman filter paper disc, the disc suspended in front of a battery-powered fan, and the container closed for 15 minutes to 2 hours. The test groups were then left at ambient temperature, high humidity, and assessed for Pd mold after 6 days. The test groups consisted of mandarins that were: uninfected and untreated; infected and untreated; infected and treated with 0.5 g/L imazalil; infected, treated with 125 μL of AITC on the filter paper, and exposed to the vapor for 15 minutes, 30 minutes, 1 hour, and 2 hours.

Series [2] relates to grapes. The series is described as follows: Visible appearance of vapor-treated grapes. It counts as in vivo, grape. How it is done:
Example 12. The antifungal activity of AITC and DADS vapor against Botrytis cinerea (Bc) in grapes was tested. All samples were wounded by making a 3 mm deep puncture in the skin. Samples were infected by dispensing 1000 Bc spores suspended in 10 μL of water in the wound. The test groups consisted of grapes that were: uninfected and untreated; infected and untreated; exposed to the vapor of 3 mL of AITC in a Petri dish for 72 hours; and exposed to the vapor of 3 mL of DADS in a Petri dish for 72 hours. FIG. 17 quantifies the infection results. […] Both AITC and DADS vapor were effective at controlling Bc mold. Treatment with AITC can potentially lead to changes in color or flavor of the grapes.

For series [3], the system named is mandarins. The series can be described thus: Visible appearance of vapor-treated mandarins. Format: in vivo, mandarin. How it is done:
as §1
as §2, with “dish. […] DADS vapor reduced the incidence of Pd mold by 85% and Pi mold by 30% compared to the respective untreated/infected test groups. […] Both AITC and DADS were effective at preventing fungal growth. The inhibition from AITC was approximately 100%, with some changes in visible appearance.” for “dish.”
as §3
Example 4. The antifungal activity of a range of AITC vapor concentrations was tested against Pd in mandarins. All mandarins were wounded by puncturing with a screw and infected by dispensing 1000 Pd spores suspended in 10 μL of water in each wound. The fruit was then placed in an airtight container, a range of AITC volumes were disposed onto a Whatman filter paper disc, the disc was suspended in front of a battery-powered fan, and the container closed for 18 hours. The mandarins were then left at ambient temperature and high humidity for 6 days. The test groups were mandarins that were infected and untreated, and infected and treated with 62.5 μL 125 μL 250 μL and 500 μL on the filter paper disc. […]
Example 5. […] The test groups were then left at ambient temperature, high humidity, and assessed for Pd mold after 6 days. […]

Each structure is given as a SMILES string.

As for `C=CCSSCC=C` [DADS, diallyl disulfide], the “reduction of the incidence of Pd mold compared to the untreated samples” value in series [1] (Example 1, mandarins, 72 hours vapor of 3 mL in a Petri dish) came to 95.8%. Besides, the “reduction of the incidence of Pd mold compared to imazalil treated samples” value in series [1] (Example 1, mandarins, 72 hours vapor of 3 mL, imazalil 1 g/L dip) came out at 19.1%. The “reduction of the incidence of Pd mold compared to untreated/infected test group” value in series [1] (Example 2, mandarins, 72 hours vapor of 3 mL in a Petri dish) is on record as 85%. Also, the “visible appearance of grapes” value in series [2] (Example 12, vapor of 3 mL for 72 hours) is “appeared unchanged”. In addition, the “visible appearance of mandarins” value in series [3] (Example 1, 72 hours vapor of 3 mL) was “no visible degradation or discoloration”; in series [3] (Example 2, 72 hours vapor of 3 mL) it was “No difference in appearance”.

In the case of `C=CCN=C=S` [AITC, allyl isothiocyanate], the Pd infection result in series [1] (Example 3, mandarins, vapor of 500 μL in a Petri dish for 72 hours) is “substantially prevented Pd infections”. Moreover, the “severity of Pd infection” value in series [1] (Example 4, 62.5 μL on filter paper disc, airtight container with fan, 18 hours, 6 days) is given as “reduced the severity of infection relative to the untreated group”. The “effect on Pd mold” value was “little effect on Pd mold” in series [1] (15 minute exposure) and “substantially eliminated the mold” in series [1] (2 hour exposure). Further, the “visible appearance of grapes” value in series [2] (in vivo) is listed as “darkening of the fruit”. Moreover, the “fruit with spotting and darkening of the peel” value in series [3] (Example 5, 125 μL, 2 hour treatment) came out at 62.5%. Further, the “visible appearance of mandarins” value in series [3] (in vivo) is recorded as “visibly darker than untreated fruit”.
